From patent publication US20050101595A1, “N-containing cycloalkyl-substituted amino-thiazole derivatives and pharmaceutical compositions for inhibiting cell proliferation and methods for their use” (PFIZER INC., priority 2003, published 2005)
pIC50, pKi: −log10 of the molar value. Like-named read-outs stand apart in the source and are kept apart here.

Tests used:
[1] = molecular target: CDK2/Cyclin A (Homo sapiens, UniProt P24941); assay: Inhibition of CDK2/Cyclin A Retinoblastoma Kinase Activity; type: biochemical; details: for pKi: apparent Ki, CDK2/proteolyzed cyclin A, Rb fragment substrate, 25 μM ATP
Procedure, shortened: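 Baculovirus-expressed CDK2 complexed with proteolyzed cyclin A (10 or 19 nM), Rb fragment substrate, 25 μM [32P/33P]ATP, HEPES pH 7.4, 30 °C for 60 or 75 min under initial-rate conditions. Filter capture and phosphorimager readout; apparent Ki fitted to competitive or tight-binding competitive inhibition.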

[2] = tested on: HCT-116 cell line; assay: Inhibition of cell growth, tetrazolium salt (MTT) assay; type: cell-based; details: for pIC50: Homo sapiens, HCT-116, 120 h, MTT, three to five days, read-out: HCT-116 IC50; for HCT-116 % Inhibition at 0.25 μM: 0.25 μM compound
Procedure, shortened: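 Growth inhibition by MTT reduction at 540 nm (0.2 mg/mL, 4 h at 37° C, formazan dissolved in DMSO), normalized to cells given only 0.5% v/v DMSO. HCT-116 cultures in McCoy's 5A were dosed 4 h post-plating and kept three to five days at 37° C, 5% CO2.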

[3] = molecular target: human CDK4 and genetically truncated (1-264) cyclin D3 (Homo sapiens, UniProt P11802); assay: Inhibition of CDK4/Cyclin D Retinoblastoma Kinase Activity; type: biochemical; details: for pKi: apparent Ki, CDK4/truncated cyclin D3, Rb fragment substrate, 25 μM ATP
human CDK4 and genetically truncated (1-264) cyclin D3, sequence (P11802 whole entry, the tested form may be a part): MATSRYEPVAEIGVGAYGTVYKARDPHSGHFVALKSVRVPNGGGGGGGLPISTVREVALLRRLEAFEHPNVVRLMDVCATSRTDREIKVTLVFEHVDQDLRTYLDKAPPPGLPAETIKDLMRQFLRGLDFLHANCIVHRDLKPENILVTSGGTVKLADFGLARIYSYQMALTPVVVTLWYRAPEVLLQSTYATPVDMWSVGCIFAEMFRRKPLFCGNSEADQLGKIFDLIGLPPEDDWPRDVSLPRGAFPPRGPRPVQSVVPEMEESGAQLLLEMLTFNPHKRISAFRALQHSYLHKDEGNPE
human CDK4 and genetically truncated (1-264) cyclin D3, sequence (P30281 1-264 partner): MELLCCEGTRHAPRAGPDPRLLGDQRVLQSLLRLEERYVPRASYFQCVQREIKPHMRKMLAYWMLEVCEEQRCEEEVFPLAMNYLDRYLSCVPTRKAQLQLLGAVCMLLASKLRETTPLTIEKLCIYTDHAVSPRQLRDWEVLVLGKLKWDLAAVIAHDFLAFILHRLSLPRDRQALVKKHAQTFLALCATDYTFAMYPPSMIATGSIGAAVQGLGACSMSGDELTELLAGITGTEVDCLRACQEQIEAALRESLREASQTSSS
Experimental: Cyclin-dependent kinase activity was measured by quantifying the enzyme-catalyzed, time-dependent incorporation of radioactive phosphate from [^32P]ATP or [^33P]ATP into a protein substrate. Unless noted otherwise, assays were performed in 96-well plates in a total volume of 50 μL, in the presence of 10 mM HEPES (N-[2-hydroxyethyl]piperazine-N′-[2-ethanesulfonic acid]) (pH 7.4), 10 mM MgCl2, 25 μM adenosine triphosphate (ATP), 1 mg/mL ovalbumin, 5 μg/mL leupeptin, 1 mM dithiothreitol, 10 mM β-glycerophosphate, 0.1 mM sodium vanadate, 1 mM sodium fluoride, 2.5 mM ethylene glycol-bis(β-aminoethyl ether)-N,N,N′N′-tetraacetic acid (EGTA), 2% (v/v) dimethylsulfoxide, and 0.03-0.4 μCi [^32/33P]ATP per reaction. Reactions were initiated with enzyme, incubated at 30° C., and terminated after 20 minutes by the addition of ethylenediaminetetraacetic acid (EDTA) to 250 mM. The phosphorylated substrate was then captured on a nitrocellulose or phosphocellulose membrane using a 96-well filtration manifold, and unincorporated radioactivity was removed by repeated washing with 0.85% phosphoric acid. Radioactivity was quantified by exposing the dried membranes to a phosphorimager.
Inhibition was measured relative to control wells that contained all reaction components including 2% (v/v) DMSO but no compound, after subtraction of background radioactivity measured in the absence of enzyme. Apparent Ki values of discrete compounds were measured by assaying enzyme activity in the presence of different inhibitor compound concentrations and subtracting the background radioactivity measured in the absence of enzyme. The kinetic parameters (kcat, Km for ATP) were measured for each enzyme under the usual assay conditions by determining the dependence of initial rates on ATP concentration. Inhibition data were fit to an equation for competitive inhibition using Kaleidagraph (Synergy Software), or were fit to an equation for competitive tight-binding inhibition using the software KineTic (BioKin, Ltd.).
Inhibition of CDK4/Cyclin D Retinoblastoma Kinase Activity:
A complex of human CDK4 and genetically truncated (1-264) cyclin D3 was purified using traditional biochemical chromatographic techniques from insect cells that had been co-infected with the corresponding baculovirus expression vectors (see e.g., Meijer and Kim, “Chemical Inhibitors of Cyclin-Dependent Kinases,” Methods in Enzymol,. vol. 283 (1997), pp. 113-128.). The enzyme complex (5 nM) was assayed with 0.3-0.5 μg of purified recombinant retinoblastoma protein fragment (Rb) as a substrate. The engineered Rb fragment (residues 386-928 of the native retinoblastoma protein; 62.3 kDa) contains the majority of the phosphorylation sites found in the native 106-kDa protein, as well as a tag of six histidine residues for ease of purification. Phosphorylated Rb substrate was captured by microfiltration on a nitrocellulose membrane and quantified using a phosphorimager as described above. For measurement of tight-binding inhibitors, the assay duration was extended to 60 minutes, during which the time-dependence of product formation was linear and initial rate conditions were met.

[4] = 0.1 μM compound, HCT-116, Table 3
[5] = 0.1 μM compound, HCT-116, Table 4

Work on `CC1CC(NCCS(=O)(=O)N2CCC(Nc3nc(N)c(C(=O)c4c(F)cccc4F)s3)CC2)CC(C)(C)C1` (stereo not shown) [Example K44] yielded a pKi [1] of 9.31, a pIC50 ([2]; first HCT-116 column (c4)) of 7.00 and a pIC50 ([2]; second HCT-116 column (c5)) of 6.44. For the same compound, the pKi [3] was 8.60.
For `CC(C)c1cc(C(C)C)c(S(=O)(=O)N2CCC(Nc3nc(N)c(C(=O)c4c(F)cccc4F)s3)CC2)c(C(C)C)c1` [Example P9], the “CDK2 % Inhibition at 0.03 μM” value ([1]; 0.03 μM compound, Table 3) was −17%, the “HCT-116 % Inhibition at 0.1 μM” value [2, 4] was 13% and the “HCT-116 % Inhibition at 0.25 μM” value ([2]; HCT-116, Table 3) was 35%. The “CDK4 % Inhibition at 0.03 μM” value ([3]; 0.03 μM compound, Table 3) was 46%.
With `COCC(=O)N1CCC(Nc2nc(N)c(C(=O)c3c(F)cccc3F)s2)CC1` [Example Q42] the “CDK2 % Inhibition at 0.03 μM” value ([1]; 0.03 μM compound, Table 4) was −4%, the “HCT-116 % Inhibition at 0.1 μM” value [2, 5] was 3% and the “HCT-116 % Inhibition at 0.25 μM” value ([2]; HCT-116, Table 4) was 30%. For the same compound, the “CDK4 % Inhibition at 0.03 μM” value ([3]; 0.03 μM compound, Table 4) was 20%.
`CCCSc1ncccc1C(=O)N1CCC(Nc2nc(N)c(C(=O)c3c(F)cccc3F)s2)CC1` [Example R28] was tested, and the “CDK2 % Inhibition at 0.03 μM” value ([1]; at 0.03 μM) was 58%, the “HCT-116 % Inhibition at 0.1 μM” value ([2]; HCT-116 cells, at 0.1 μM) was 0% and the “HCT-116 5 Inhibition at 0.25 μM” value ([2]; HCT-116 cells) was 41. For the same compound, the “CDK4 % Inhibition at 0.03 μM” value ([3]; at 0.03 μM) was 66%.
With `COc1ccc(OC)c(CC(=O)N2CCC(Nc3nc(N)c(C(=O)c4c(F)cccc4F)s3)CC2)c1` [Example Q78] the “CDK2 % Inhibition at 0.03 μM” value ([1]; 0.03 μM compound, Table 4) was 39%, the “HCT-116 % Inhibition at 0.1 μM” value [2, 5] was 0.43% and the “HCT-116 % Inhibition at 0.25 μM” value ([2]; HCT-116, Table 4) was 37%. For the same compound, the “CDK4 % Inhibition at 0.03 μM” value ([3]; 0.03 μM compound, Table 4) was 46%.
`Nc1nc(NC2CCN(S(=O)(=O)c3ccc(I)cc3)CC2)sc1C(=O)c1c(F)cccc1F` [Example P16] was tested, and the “CDK2 % Inhibition at 0.03 μM” value ([1]; 0.03 μM compound, Table 3) was 71%, the “HCT-116 % Inhibition at 0.1 μM” value [2, 4] was 34% and the “HCT-116 % Inhibition at 0.25 μM” value ([2]; HCT-116, Table 3) was 35%. The “CDK4 % Inhibition at 0.03 μM” value ([3]; 0.03 μM compound, Table 3) was 67%.
For `Nc1nc(NC2CCN(C(=O)CCC3CCCC3)CC2)sc1C(=O)c1c(F)cccc1F` [Example Q58], the “CDK2 % Inhibition at 0.03 μM” value ([1]; 0.03 μM compound, Table 4) was 29%, the “HCT-116 % Inhibition at 0.1 μM” value [2, 5] was 0% and the “HCT-116 % Inhibition at 0.25 μM” value ([2]; HCT-116, Table 4) was 25%. The “CDK4 % Inhibition at 0.03 μM” value ([3]; 0.03 μM compound, Table 4) was 53%.
Work on `Nc1nc(NC2CCN(C(=O)CCN3CCCCC3)CC2)sc1C(=O)c1c(F)cccc1F` [Example D3, 1-(4-[4-Amino-5-(2,6-difluoro-benzoyl)-thiazol-2-ylamino}-piperidin-1-yl)-3-piperidin-1-yl-propan-1-one] yielded a pKi [1] of 6.40, a pIC50 ([2]; first HCT-116 column (c4)) of less than 5.30 and a pKi [3] of 7.15.
`Nc1nc(NC2CCN(C(=O)c3ccc(Cl)nc3)CC2)sc1C(=O)c1c(F)cccc1F` [Example C9, 1-(4-Amino-2-{1-[-(6-chloro-pyridin-3-yl)-methanoyl]-piperidin-4-ylamino}-thiazol-5-yl)-1-(2,6-difluoro-phenyl)-methanone] was tested, and the pKi [1] was 7.17, the pIC50 ([2]; first HCT-116 column (c4)) was 6.23 and the pIC50 ([2]; second HCT-116 column (c5)) was 5.89. For the same compound, the pKi [3] was 7.70.
In the case of `COC(=O)c1ccccc1NC(=O)N1CCC(Nc2nc(N)c(C(=O)c3c(F)cccc3F)s2)CC1` [Example O39], the “CDK2 % Inhibition At 0.03 μM” value ([1]; 0.03 μM compound, Table 2) was 32%, the “HCT-116 % Inhibition at 0.25 μM” value ([2]; HCT-116, Table 2) was 27% and the “CDK4 % Inhibition at 0.03 μM” value ([3]; 0.03 μM compound, Table 2) was 13%.
In the case of `Nc1nc(NC2CCN(S(=O)(=O)c3cc(Cl)sc3Cl)CC2)sc1C(=O)c1c(F)cccc1F` [Example F13, 1-{4-Amino-2-[1-(2,5-dichloro-thiophene-3-sulfonyl)-piperidin-4-ylamino]-thiazol-5-yl}-1-(2,6-difluoro-phenyl)-methanone], the pKi [1] was 8.06, the pIC50 ([2]; first HCT-116 column (c4)) was 6.21 and the pIC50 ([2]; second HCT-116 column (c5)) was 5.59. For the same compound, the pKi [3] was 8.24.
In the case of `Cc1noc(C)c1C(=O)N1CCC(Nc2nc(N)c(C(=O)c3c(F)cccc3F)s2)CC1` [Example R25], the “CDK2 % Inhibition at 0.03 μM” value ([1]; at 0.03 μM) was −9%, the “HCT-116 % Inhibition at 0.1 μM” value ([2]; HCT-116 cells, at 0.1 μM) was 0% and the “HCT-116 5 Inhibition at 0.25 μM” value ([2]; HCT-116 cells) was 43. For the same compound, the “CDK4 % Inhibition at 0.03 μM” value ([3]; at 0.03 μM) was 22%.
